# Molecular target: T1, human vitamin D receptor (VDR) (Homo sapiens, UniProt P11473)
# T1 construct: expressed in transfected cells; host or cells: HEK293 cells (ATCC), transient transfection
# T1 sequence (P11473 127-423 limits assumed): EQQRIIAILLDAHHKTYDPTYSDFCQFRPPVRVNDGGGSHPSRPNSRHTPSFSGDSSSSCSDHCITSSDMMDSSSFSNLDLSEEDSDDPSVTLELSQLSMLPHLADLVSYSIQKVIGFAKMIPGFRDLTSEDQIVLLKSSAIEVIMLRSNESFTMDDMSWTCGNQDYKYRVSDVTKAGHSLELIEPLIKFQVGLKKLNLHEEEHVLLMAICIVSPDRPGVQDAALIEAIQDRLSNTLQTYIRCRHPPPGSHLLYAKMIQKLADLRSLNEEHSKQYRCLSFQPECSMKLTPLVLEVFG
# Assay: Human vitamin D receptor (VDR) agonist activity, GAL4-VDR LBD luciferase transactivation assay in transiently transfected HEK293 cells
# Assay type: cell-based
# Conditions: hybrid VDR-GAL4 receptor, pFR-Luc luciferase reporter, 16 h incubation, read-out: Effective concentrations of half maximal activation (EC50)
# Description: By way of example, the human vitamin D receptor (VDR) agonist activity of the claimed compounds can be tested using a cell based transactivation assay in an eukaryotic cell line. After a co-transfection, using a reporter plasmid construct and a hybrid receptor construct containing the ligand-binding domain of the human VDR linked to the DNA-binding domain of the yeast transcription factor GAL4, the cultured cells were stimulated by the VDR agonists. The hybrid VDR-GAL4 receptor binds the VDR agonists and transactivates luciferase reporter expression through the GAL4-response elements in the promoter of the luciferase gene (reporter construct). The VDR agonist binding and transactivation is determined by measuring the luciferase luminescence activity. The effective concentration of half maximal activation (EC50) was determined for the VDR agonists by means of dose-response experiments. The details of the protocol method of this test according to the invention are described in the example section. […]
row,SMILES,EC50 [nM]
1,CC/C(=C\C=C\C(O)(CC)CC)c1cccc(CCc2ccc(CO)c(C(C)O)c2)c1 (racemic) [Comp1],113
2,"CC/C(=C\C=C\C(O)(CC)CC)c1cccc(CCc2ccc(C(C)O)c(CO)c2)c1 (racemic) [I-a, (4E,6E)-3-ethyl-7-(3-(4-(1-hydroxyethyl)-3-(hydroxymethyl)phenethyl)phenyl)nona-4,6-dien-3-ol]",7

# — patent US10849838B2, “Biaromatic vitamin D analogs” (DSM IP ASSETS B.V., priority 2015, dated 2020)
